# Measured values published in patent publication US20100062052A1, “PEPTIDE-BASED COMPOUNDS AS NEW INHIBITORS OF METALLOECTOPEPTIDASES, COMPOSITIONS COMPRISING SAID COMPOUNDS AND THEIR PHARMACEUTICAL AND COSMETIC USES” (GREENPHARMA, priority 2007, published 2010).
# Residues, ends and D or L forms follow the SMILES beside them. *: point of attachment. Palmitoyl = CCCCCCCCCCCCCCCC(=O)*
# Assay: Solubility in aqueous Tris-buffer
# Assay type: physicochemical
# Conditions: diluted from ethanol stock, read-out: solubility limit in aqueous Tris-buffer conditions
smiles,measurement,value
"CCCCCCCCCCCCCCCC(=O)N[C@@H](CCC(N)=O)C(=O)N[C@@H](CCCNC(=N)N)C(=O)N[C@@H](Cc1ccccc1)C(=O)N[C@@H](CO)C(=O)N[C@@H](CCCNC(=N)N)C(N)=O [Pal-QRFSR-NH2, palmitoyl-QRFSR-NH2] (Palmitoyl-QRFSR-NH2)",solubility,≤ 70 µM
